Experimental data as given in patent US20120022107A1, “2-(PIPERIDIN-1-YL)-4-AZOLYL-THIAZOLE-5-CARBOXYLIC ACID DERIVATIVES AGAINST BACTERIAL INFECTIONS” (ASTRAZENECA AB, priority 2008, published 2012).
In brackets after ≈: the same amount, converted by molar mass.

Legend:
[1] = system: Hinf; assay: Hinf MIC; format: cell-based, Haemophilus influenzae; conditions: for MIC: Haemophilus influenzae, read-out: Hinf_MIC
[2] = system: M. tuberculosis; assay: MIC testing: Microplate Alamar Blue Assay; format: cell-based, Mycobacterium tuberculosis; conditions: lowest concentration preventing color change from blue to pink; for MIC: Mycobacterium tuberculosis, read-out: Mtu MIC
[3] = target: Msmeg (Mycolicibacterium smegmatis, UniProt A0QNE0); assay: Msmeg IC50; format: biochemical
Chain of Msmeg (A0QNE0 whole entry): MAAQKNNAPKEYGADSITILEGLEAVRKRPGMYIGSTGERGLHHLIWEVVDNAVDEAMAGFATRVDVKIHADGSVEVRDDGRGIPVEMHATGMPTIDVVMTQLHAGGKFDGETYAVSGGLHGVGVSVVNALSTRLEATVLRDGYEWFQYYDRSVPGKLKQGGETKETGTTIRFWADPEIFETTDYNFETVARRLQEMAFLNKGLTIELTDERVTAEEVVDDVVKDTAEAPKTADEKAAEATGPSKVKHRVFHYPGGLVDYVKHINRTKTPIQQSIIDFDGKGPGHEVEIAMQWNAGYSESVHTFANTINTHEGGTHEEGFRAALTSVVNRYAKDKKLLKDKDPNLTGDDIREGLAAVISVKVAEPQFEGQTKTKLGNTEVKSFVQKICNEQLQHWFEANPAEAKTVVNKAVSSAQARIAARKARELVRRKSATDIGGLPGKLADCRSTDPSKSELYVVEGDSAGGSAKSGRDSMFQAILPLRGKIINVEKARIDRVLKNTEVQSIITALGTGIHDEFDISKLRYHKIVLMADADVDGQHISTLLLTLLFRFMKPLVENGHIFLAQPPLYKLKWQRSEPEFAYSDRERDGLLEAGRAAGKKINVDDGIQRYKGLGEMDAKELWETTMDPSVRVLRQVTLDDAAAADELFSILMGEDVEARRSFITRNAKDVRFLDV

[4] = system: Sau; assay: Sau MIC; format: cell-based, Staphylococcus aureus; conditions: for MIC: Staphylococcus aureus, read-out: Sau_MIC
[5] = system: Spn; assay: Spn MIC; format: cell-based, Streptococcus pneumoniae; conditions: for MIC: Streptococcus pneumoniae, read-out: Spn_MIC

## COCCn1ncnc1-c1nc(N2CC[C@@H](NC(=O)c3[nH]c(C)c(Cl)c3Br)[C@@H](F)C2)sc1C(=O)O [Example 20, 2-((3S,4R)-4-(3-bromo-4-chloro-5-methyl-1H-pyrrole-2-carboxamido)-3-fluoropiperidin-1-yl)-4-(1-(2-methoxyethyl)-1H-1,2,4-triazol-5-yl) thiazole-5-carboxylic acid]
[1]
  MIC: 0.125 µg/mL (≈ 0.212 µM)
[2]
  MIC: 0.125 µg/mL (≈ 0.212 µM)
[3]
  IC50: 4 nM
[4]
  MIC: 0.125 µg/mL (≈ 0.212 µM)
[5]
  MIC: 0.125 µg/mL (≈ 0.212 µM)

## Cc1[nH]c(C(=O)N[C@@H]2CCN(c3nc(-c4ncnn4C)c(C(=O)O)s3)C[C@@H]2OCC2CC2)c(Br)c1Cl [Example 12, 2-((3S,4R)-4-(3-bromo-4-chloro-5-methyl-1H-pyrrole-2-carboxamido)-3-(cyclopropylmethoxy)piperidin-1-yl)-4-(1-methyl-1H-1,2,4-triazol-5-yl) thiazole-5-carboxylic acid]
[1]
  MIC: 0.125 µg/mL (≈ 0.209 µM)
[2]
  MIC: 0.015 µg/mL (≈ 0.025 µM)
[3]
  IC50: 4 nM
[4]
  MIC: 0.125 µg/mL (≈ 0.209 µM)
[5]
  MIC: 0.125 µg/mL (≈ 0.209 µM)

## CO[C@H]1CN(c2nc(-c3ncnn3CC3CC3)c(C(=O)O)s2)CC[C@H]1NC(=O)c1[nH]c(C)c(Br)c1Cl [Example 18, 2-((3S,4R)-4-(4-bromo-3-chloro-5-methyl-1H-pyrrole-2-carboxamido)-3-methoxypiperidin-1-yl)-4-(1-(cyclopropylmethyl)-1H-1,2,4-triazol-5-yl) thiazole-5-carboxylic acid]
[1]
  MIC: 0.5 µg/mL (≈ 0.835 µM)
[2]
  MIC: 0.06 µg/mL (≈ 0.1 µM)
[3]
  IC50: 4 nM
[4]
  MIC: 0.125 µg/mL (≈ 0.209 µM)
[5]
  MIC: 0.25 µg/mL (≈ 0.417 µM)

## COCCn1ncnc1-c1nc(N2CC[C@@H](NC(=O)c3[nH]c(C)c(Br)c3Cl)[C@@H](OC)C2)sc1C(=O)O [Example 21, 2-((3S,4R)-4-(4-bromo-3-chloro-5-methyl-1H-pyrrole-2-carboxamido)-3-methoxypiperidin-1-yl)-4-(1-(2-methoxyethyl)-1H-1,2,4-triazol-5-yl) thiazole-5-carboxylic acid]
[2]
  MIC: 0.06 µg/mL (≈ 0.0995 µM)
[3]
  IC50: < 2.5 nM
[4]
  MIC: 0.125 µg/mL (≈ 0.207 µM)
[5]
  MIC: 0.125 µg/mL (≈ 0.207 µM)

## CO[C@H]1CN(c2nc(-c3nccn3C)c(C(=O)O)s2)CC[C@H]1NC(=O)c1[nH]c(C)c(Cl)c1Br [Example 3, 2-((3S,4R)-4-{[(3-bromo-4-chloro-5-methyl-1H-pyrrol-2-yl)carbonyl]amino}-3-methoxypiperidin-1-yl)-4-(1-methyl-1H-imidazol-2-yl)-1,3-thiazole-5-carboxylic acid]
[1]
  MIC: 0.25 µg/mL (≈ 0.448 µM)
[2]
  MIC: 0.125 µg/mL (≈ 0.224 µM)
[3]
  IC50: 6 nM
[4]
  MIC: 0.125 µg/mL (≈ 0.224 µM)
[5]
  MIC: 0.125 µg/mL (≈ 0.224 µM)

## CCO[C@H]1CN(c2nc(-c3ncnn3C)c(C(=O)O)s2)CC[C@H]1NC(=O)c1[nH]c(C)c(Br)c1Cl [Example 11, 2-((3S,4R)-4-(4-bromo-3-chloro-5-methyl-1H-pyrrole-2-carboxamido)-3-ethoxypiperidin-1-yl)-4-(1-methyl-1H-1,2,4-triazol-5-yl) thiazole-5-carboxylic acid]
[2]
  MIC: 0.06 µg/mL (≈ 0.105 µM)
[3]
  IC50: < 2.5 nM
[4]
  MIC: 0.125 µg/mL (≈ 0.218 µM)
[5]
  MIC: 0.125 µg/mL (≈ 0.218 µM)

## COCCn1ccnc1-c1nc(N2CC[C@@H](NC(=O)c3[nH]c(C)c(Cl)c3Br)[C@@H](OC)C2)sc1C(=O)O [Example 7, 2-((3S,4R)-4-{[(3-Bromo-4-chloro-5-methyl-1H-pyrrol-2-yl)carbonyl]amino}-3-methoxypiperidin-1-yl)-4-[1-(2-methoxyethyl)-1H-imidazol-2-yl]-1,3-thiazole-5-carboxylic acid]
[1]
  MIC: 0.25 µg/mL (≈ 0.415 µM)
[2]
  MIC: 1 µg/mL (≈ 1.66 µM)
[3]
  IC50: 4.6 nM
[4]
  MIC: 0.125 µg/mL (≈ 0.208 µM)
[5]
  MIC: 0.125 µg/mL (≈ 0.208 µM)

## Cc1[nH]c(C(=O)N[C@@H]2CCN(c3nc(-c4ncnn4C)c(C(=O)O)s3)C[C@@H]2F)c(Cl)c1Br [Example 6, 2-((3S,4R)-4-{[(4-Bromo-3-chloro-5-methyl-1H-pyrrol-2-yl)carbonyl]amino}-3-fluoropiperidin-1-yl)-4-(1-methyl-1H-1,2,4-triazol-5-yl)-1,3-thiazole-5-carboxylic acid]
[1]
  MIC: 0.25 µg/mL (≈ 0.457 µM)
[2]
  MIC: 1 µg/mL (≈ 1.83 µM)
[3]
  IC50: 5 nM
[4]
  MIC: 0.125 µg/mL (≈ 0.229 µM)
[5]
  MIC: 0.5 µg/mL (≈ 0.914 µM)

## CO[C@H]1CN(c2nc(-c3ncnn3C)c(C(=O)O)s2)CC[C@H]1NC(=O)c1[nH]c(C)c(Br)c1C#N [Example 9, 2-{(3S,4R)-4-[(4-Bromo-3-cyano-5-methyl-1H-pyrrole-2-carbonyl)-amino]-3-methoxy-piperidin-1-yl}-4-(2-methyl-2H-[1,2,4]triazol-3-yl)-thiazole-5-carboxylic acid]
[1]
  MIC: 0.25 µg/mL (≈ 0.455 µM)
[2]
  MIC: 0.015 µg/mL (≈ 0.0273 µM)
[3]
  IC50: 10 nM
[4]
  MIC: 0.25 µg/mL (≈ 0.455 µM)
[5]
  MIC: 0.125 µg/mL (≈ 0.228 µM)

## CO[C@H]1CN(c2nc(-c3ncnn3C)c(C(=O)O)s2)CC[C@H]1NC(=O)c1[nH]c(C)c(C#N)c1Br [Example 8, 2-{(3S,4R)-4-[(3-Bromo-4-cyano-5-methyl-1H-pyrrole-2-carbonyl)-amino]-3-methoxy-piperidin-1-yl}-4-(2-methyl-2H-[1,2,4]triazol-3-yl)-thiazole-5-carboxylic acid]
[1]
  MIC: 2 µg/mL (≈ 3.64 µM)
[2]
  MIC: < 0.03 µg/mL
[3]
  IC50: < 0.25 nM
[4]
  MIC: 0.5 µg/mL (≈ 0.91 µM)
[5]
  MIC: 0.125 µg/mL (≈ 0.228 µM)

## 2-((3S,4R)-4-(3-bromo-4-chloro-5-methyl-1H-pyrrole-2- carboxamido)-3-fluoropiperidin-1-yl)-4-(1- (cyclopropylmethyl)-1H-1,2,4-triazol-5-yl) thiazole-5- carboxylic acid [Example 17]
[1]
  Hinf_MIC: 0.125 µg/mL
[2]
  Mtu MIC: 0.06 µg/mL
[3]
  IC50: 4 nM
[4]
  Sau_MIC: 0.125 µg/mL
[5]
  Spn_MIC: 0.125 µg/mL

## COCCn1ncnc1-c1nc(N2CC[C@@H](NC(=O)c3[nH]c(Cl)c(C)c3Cl)[C@@H](OC)C2)sc1C(=O)O [Example 22, 2-((3S,4R)-4-(3,5-dichloro-4-methyl-1H-pyrrole-2-carboxamido)-3-methoxypiperidin-1-yl)-4-(1-(2-methoxyethyl)-1H-1,2,4-triazol-5-yl) thiazole-5-carboxylic acid]
[2]
  MIC: 0.5 µg/mL (≈ 0.895 µM)
[3]
  IC50: 47 nM
[4]
  MIC: 0.25 µg/mL (≈ 0.448 µM)
[5]
  MIC: 0.5 µg/mL (≈ 0.895 µM)

## CCn1ncnc1-c1nc(N2CC[C@@H](NC(=O)c3[nH]c(Cl)c(C)c3Cl)[C@@H](OC)C2)sc1C(=O)O [Example 15, 2-{(3S,4R)-4-[(3,5-Dichloro-4-methyl-1H-pyrrole-2-carbonyl)-amino]-3-methoxy-piperidin-1-yl}-4-(2-ethyl-2H-[1,2,4]triazol-3-yl)-thiazole-5-carboxylic acid]
[1]
  MIC: 1 µg/mL (≈ 1.89 µM)
[2]
  MIC: 0.5 µg/mL (≈ 0.946 µM)
[3]
  IC50: 45 nM
[4]
  MIC: 0.25 µg/mL (≈ 0.473 µM)
[5]
  MIC: 0.25 µg/mL (≈ 0.473 µM)

## CCn1ncnc1-c1nc(N2CC[C@@H](NC(=O)c3[nH]c(C)c(Br)c3Cl)[C@@H](OC)C2)sc1C(=O)O [Example 14, 2-((3S,4R)-4-(4-bromo-3-chloro-5-methyl-1H-pyrrole-2-carboxamido)-3-methoxypiperidin-1-yl)-4-(1-ethyl-1H-1,2,4-triazol-5-yl) thiazole-5-carboxylic acid]
[1]
  MIC: 0.125 µg/mL (≈ 0.218 µM)
[2]
  MIC: 0.03 µg/mL (≈ 0.0524 µM)
[3]
  IC50: < 2.5 nM
[4]
  MIC: 0.125 µg/mL (≈ 0.218 µM)
[5]
  MIC: 0.125 µg/mL (≈ 0.218 µM)

## CCn1ncnc1-c1nc(N2CC[C@@H](NC(=O)c3[nH]c(C)c(Cl)c3Br)[C@@H](OC)C2)sc1C(=O)O [Example 13, 2-((3S,4R)-4-(3-bromo-4-chloro-5-methyl-1H-pyrrole-2-carboxamido)-3-methoxypiperidin-1-yl)-4-(1-ethyl-1H-1,2,4-triazol-5-yl) thiazole-5-carboxylic acid]
[1]
  MIC: 0.125 µg/mL (≈ 0.218 µM)
[2]
  MIC: 0.015 µg/mL (≈ 0.0262 µM)
[3]
  IC50: < 2.5 nM
[4]
  MIC: 0.125 µg/mL (≈ 0.218 µM)
[5]
  MIC: 0.125 µg/mL (≈ 0.218 µM)

## CO[C@H]1CN(c2nc(-c3ncnn3CC3CC3)c(C(=O)O)s2)CC[C@H]1NC(=O)c1[nH]c(C)c(Cl)c1Br [Example 16, 2-((3S,4R)-4-(3-bromo-4-chloro-5-methyl-1H-pyrrole-2-carboxamido)-3-methoxypiperidin-1-yl)-4-(1-(cyclopropylmethyl)-1H-1,2,4-triazole-5-yl) thiazole-5-carboxylic acid]
[1]
  MIC: 0.25 µg/mL (≈ 0.417 µM)
[2]
  MIC: 0.03 µg/mL (≈ 0.0501 µM)
[3]
  IC50: < 2.5 nM
[4]
  MIC: 8 µg/mL (≈ 13.4 µM)
[5]
  MIC: 0.25 µg/mL (≈ 0.417 µM)

## CO[C@H]1CN(c2nc(-c3ncnn3C)c(C(=O)O)s2)CC[C@H]1NC(=O)c1[nH]c(C)c(Cl)c1Br [Example 1, 2-((3S,4R)-4-{[3-Bromo-4-chloro-5-methyl-1H-pyrrole-2-carbonyl]amino}-3-methoxypiperidin-1-yl)-4-(1-methyl-1H-1,2,4-triazol-5-yl)-1,3-thiazole-5-carboxylic acid]
[1]
  MIC: 8 µg/mL (≈ 14.3 µM)
[2]
  MIC: 0.008 µg/mL (≈ 0.0143 µM)
[3]
  IC50: 2.6 nM
[4]
  MIC: 0.116 µg/mL (≈ 0.208 µM)
[5]
  MIC: 0.116 µg/mL (≈ 0.208 µM)

## COCCn1ncnc1-c1nc(N2CC[C@@H](NC(=O)c3[nH]c(C)c(Cl)c3Br)[C@@H](OC)C2)sc1C(=O)O [Example 19, 2-((3S,4R)-4-(3-bromo-4-chloro-5-methyl-1H-pyrrole-2-carboxamido)-3-methoxypiperidin-1-yl)-4-(1-(2-methoxyethyl)-1H-1,2,4-triazol-5-yl) thiazole-5-carboxylic acid]
[1]
  MIC: 0.25 µg/mL (≈ 0.415 µM)
[2]
  MIC: 0.03 µg/mL (≈ 0.0498 µM)
[3]
  IC50: < 2.5 nM
[4]
  MIC: 0.125 µg/mL (≈ 0.207 µM)
[5]
  MIC: 0.125 µg/mL (≈ 0.207 µM)

## CCO[C@H]1CN(c2nc(-c3ncnn3C)c(C(=O)O)s2)CC[C@H]1NC(=O)c1[nH]c(C)c(Cl)c1Br [Example 10]
[1]
  MIC: 0.125 µg/mL (≈ 0.218 µM)
[2]
  MIC: 0.008 µg/mL (≈ 0.014 µM)
[3]
  IC50: < 2.5 nM
[4]
  MIC: 0.125 µg/mL (≈ 0.218 µM)
[5]
  MIC: 0.125 µg/mL (≈ 0.218 µM)

## Cc1[nH]c(C(=O)N[C@@H]2CCN(c3nc(-c4ncnn4C)c(C(=O)O)s3)C[C@@H]2F)c(Br)c1Cl [Example 5, 2-((3S,4R)-4-{[(3-Bromo-4-chloro-5-methyl-1H-pyrrol-2-yl)carbonyl]amino}-3-fluoropiperidin-1-yl)-4-(1-methyl-1H-1,2,4-triazol-5-yl)-1,3-thiazole-5-carboxylic acid]
[1]
  MIC: 27.3 µg/mL (≈ 50 µM)
[2]
  MIC: < 0.06 µg/mL
[3]
  IC50: < 4 nM
[4]
  MIC: 0.106 µg/mL (≈ 0.194 µM)
[5]
  MIC: 0.106 µg/mL (≈ 0.194 µM)
